Results published in the supplement of paper PMC10307832.

What was measured:
Test in all cases: relative viability (nuclei count vs DMSO), 5 days (fraction); higher = more cells survive
[1] = compound: COc1nc(N)nc2c1ncn2[C@@H]1O[C@H](CO)[C@@H](O)[C@@H]1O [Nelarabine] + CS(=O)(=O)N1CCN(Cc2cc3nc(-c4cccc5[nH]ncc45)nc(N4CCOCC4)c3s2)CC1 [Pictilisib] (partner 1 µM)
Summary of the method: (§1)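 After 5 days of treatment, lung cancer cells in 1536-well plates were fixed and stained in a single step (final 0.05% Triton X-100, 1% formaldehyde, 1 ug/ml Hoechst) and their nuclei counted on 4× images. Treatment had been applied by pin tool the day after seeding as one drug alone or as a fixed anchor-drug dose with five library-drug doses (not always all listed) in √10 steps. Relative viability is the nuclei count of treated wells divided by that of vehicle wells, and values are medians of duplicate plates.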

[2] = compound: COc1nc(N)nc2c1ncn2[C@@H]1O[C@H](CO)[C@@H](O)[C@@H]1O [Nelarabine] + CC(=O)c1c(C)c2cnc(Nc3ccc(N4CCNCC4)cn3)nc2n(C2CCCC2)c1=O [Palbociclib] (partner 0.5 µM)
Summary of the method: as §1

[3] = compound: COc1nc(N)nc2c1ncn2[C@@H]1O[C@H](CO)[C@@H](O)[C@@H]1O [Nelarabine] + CC(=O)Nc1cccc(-n2c(=O)n(C3CC3)c(=O)c3c(Nc4ccc(I)cc4F)n(C)c(=O)c(C)c32)c1 [Trametinib] (partner 0.02 µM)
Summary of the method: as §1

[4] = compound: C=CCn1c(=O)c2cnc(Nc3ccc(N4CCN(C)CC4)cc3)nc2n1-c1cccc(C(C)(C)O)n1 [Adavosertib] + CC(=O)c1c(C)c2cnc(Nc3ccc(N4CCNCC4)cn3)nc2n(C2CCCC2)c1=O [Palbociclib] (partner 0.5 µM)
Summary of the method: as §1

Row | Cell Line | relative viability ([1]; first compound 0.01 µM) | relative viability ([1]; first compound 0.03162 µM) | relative viability ([1]; first compound 0.1 µM) | relative viability ([1]; first compound 0.3162 µM) | relative viability ([1]; first compound 1 µM) | relative viability ([2]; first compound 0.01 µM) | relative viability ([2]; first compound 0.03162 µM) | relative viability ([2]; first compound 0.1 µM) | relative viability ([2]; first compound 0.3162 µM) | relative viability ([2]; first compound 1 µM) | relative viability ([3]; first compound 0.01 µM) | relative viability ([3]; first compound 0.03162 µM) | relative viability ([3]; first compound 0.1 µM) | relative viability ([3]; first compound 0.3162 µM) | relative viability ([3]; first compound 1 µM) | relative viability ([4]; first compound 0.03162 µM) | relative viability ([4]; first compound 0.1 µM) | relative viability ([4]; first compound 0.3162 µM) | relative viability ([4]; first compound 0.01 µM)
1 | NCI-H2405 | 0.532 | 0.464 | 0.382 | 0.49 | 0.492 | 0.495 | 0.48 | 0.516 | 0.529 | 0.51 | 0.642 | 0.612 | 0.528 | 0.677 | 0.643 | 0.492 | 0.555 | 0.58 | –
2 | NCI-H2023 | 0.309 | 0.316 | 0.176 | 0.216 | 0.252 | 0.321 | 0.369 | 0.348 | 0.336 | 0.302 | 0.721 | 0.61 | 0.46 | 0.632 | 0.505 | 0.377 | 0.331 | 0.202 | 0.412
3 | NCI-H1975 | 0.325 | 0.295 | 0.369 | 0.335 | 0.331 | 0.656 | 0.526 | 0.747 | 0.726 | 0.649 | 0.355 | 0.35 | 0.36 | 0.396 | 0.381 | 0.559 | 0.488 | 0.608 | 0.551
4 | EPLC-272H | 0.337 | 0.269 | 0.315 | 0.302 | 0.298 | 0.337 | 0.263 | 0.236 | 0.337 | 0.28 | 0.293 | 0.307 | 0.317 | 0.274 | 0.293 | 0.32 | 0.35 | 0.317 | 0.331
5 | ChaGo-K-1 | 0.699 | 0.611 | 0.934 | 0.678 | 0.743 | 0.939 | 0.815 | 0.964 | 0.989 | 0.876 | 1 | 0.748 | 0.935 | 0.845 | 0.899 | 0.949 | 1.01 | 0.885 | 0.884
6 | NCI-H2228 | 0.275 | 0.235 | – | 0.452 | 0.268 | 1.04 | 0.538 | 0.599 | 0.937 | 0.792 | 0.575 | 0.469 | 0.29 | 0.55 | 0.668 | 0.746 | 0.62 | 0.545 | –
7 | NCI-H650 | 1.05 | 0.789 | 0.762 | 0.917 | 1.04 | 0.338 | 0.283 | 0.297 | 0.301 | 0.363 | 1.05 | 0.805 | 0.922 | 1.01 | 1.06 | 0.372 | 0.336 | 0.371 | 0.344
8 | NCI-H1648 | – | – | – | – | – | – | 0.27 | – | 0.292 | 0.215 | – | 0.656 | – | 0.451 | 0.477 | 0.29 | 0.219 | 0.244 | 0.311
9 | NCI-H1651 | 0.683 | 0.476 | 0.63 | 0.699 | 0.736 | 0.566 | 0.596 | 0.553 | 0.512 | 0.522 | 0.948 | 0.909 | 0.842 | 0.827 | 0.821 | 0.523 | 0.572 | 0.612 | 0.499
